Measurements reported in US11117900B2 (Vertex Pharmaceuticals Incorporated, priority 2012, dated 2021).

What follows are compounds tested on HCT116 colorectal cancer cells (assay: Cisplatin sensitization assay (96 h MTS cell viability)). Conditions: Cisplatin sensitization value.
Type: cell-based
Outline: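 The MTS viability read, after 1 h with reagent, followed 96 h of co-treatment at 37° C. in 5% CO2. Both compound and cisplatin were titrated 2-fold from a 10 μM top final concentration in a complete concentration matrix on HCT116 cells. Scores +++/++/+ reflect cisplatin sensitization value ranges.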
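Further: compound concentration needed to lower the IC50 of Cisplatin alone by a set fold.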

Row | Compound | Cisplatin Sensitization Assay
1 | N#CCc1cnc2c(C(=O)Nc3cnccc3N3CCCCC3)c(N)nn2c1 [I-N-84, 2-amino-6-(cyanomethyl)-N-(4-(piperidin-1-yl)pyridin-3-yl)pyrazolo[1,5-a]pyrimidine-3-carboxamide] | +++ (Compounds with a Cisplatin sensitization value of <0.02 μM are marked with “+++.”)
2 | CN1CCN(c2c(Cl)cncc2NC(=O)c2c(N)nn3cc(F)cnc23)CC1 [I-N-85, 2-amino-N-(5-chloro-4-(4-methylpiperazin-1-yl)pyridin-3-yl)-6-fluoropyrazolo[1,5-a]pyrimidine-3-carboxamide] | ++ (Compounds with a Cisplatin sensitization value >0.02 μM but <0.2 μM are marked with “++.”)
3 | Nc1nn2cc(Cl)cnc2c1C(=O)Nc1cnccc1N1CCC(N)CC1 [I-N-86, 2-amino-N-(4-(4-aminopiperidin-1-yl)pyridin-3-yl)-6-chloropyrazolo[1,5-a]pyrimidine-3-carboxamide] | +++ (Compounds with a Cisplatin sensitization value of <0.02 μM are marked with “+++.”)
4 | CNC1CCN(c2ccncc2NC(=O)c2c(N)nn3cc(Cl)cnc23)CC1 [I-N-87, 2-amino-6-chloro-N-(4-(4-(methylamino)piperidin-1-yl)pyridin-3-yl)pyrazolo[1,5-a]pyrimidine-3-carboxamide] | ++ (Compounds with a Cisplatin sensitization value >0.02 μM but <0.2 μM are marked with “++.”)
5 | Nc1nn2cc(Cl)cnc2c1C(=O)Nc1cnccc1N1CCNCC1 [I-N-88, 2-amino-6-chloro-N-(4-(piperazin-1-yl)pyridin-3-yl)pyrazolo[1,5-a]pyrimidine-3-carboxamide] | ++ (Compounds with a Cisplatin sensitization value >0.02 μM but <0.2 μM are marked with “++.”)
6 | N#CCc1cnc2c(C(=O)Nc3cnccc3N3CCNCC3)c(N)nn2c1 [I-N-89, 2-amino-6-(cyanomethyl)-N-(4-(piperazin-1-yl)pyridin-3-yl)pyrazolo[1,5-a]pyrimidine-3-carboxamide] | ++ (Compounds with a Cisplatin sensitization value >0.02 μM but <0.2 μM are marked with “++.”)
7 | N#CCc1cnc2c(C(=O)Nc3cnccc3N3CCOC(CN)C3)c(N)nn2c1 (centres unmarked) [I-N-90, 2-amino-N-(4-(2-(aminomethyl)morpholino)pyridin-3-yl)-6-(cyanomethyl)pyrazolo[1,5-a]pyrimidine-3-carboxamide] | + (Compounds with a Cisplatin sensitization value >0.2 μM but <5 μM are marked with “+.”)
8 | NCC1CCN(c2ccncc2NC(=O)c2c(N)nn3cc(Cl)cnc23)CC1 [I-N-91, 2-amino-N-(4-(4-(aminomethyl)piperidin-1-yl)pyridin-3-yl)-6-chloropyrazolo[1,5-a]pyrimidine-3-carboxamide] | ++ (Compounds with a Cisplatin sensitization value >0.02 μM but <0.2 μM are marked with “++.”)
9 | Nc1nn2cc(F)cnc2c1C(=O)Nc1cncc(F)c1N1CCC(C(=O)O)CC1 [I-N-92, 1-(3-(2-amino-6-fluoropyrazolo[1,5-a]pyrimidine-3-carboxamido)-5-fluoropyridin-4-yl)piperidine-4-carboxylic acid] | + (Compounds with a Cisplatin sensitization value >0.2 μM but <5 μM are marked with “+.”)
10 | CN(C)C1CN(C2CCN(c3ccncc3NC(=O)c3c(N)nn4cc(Cl)cnc34)CC2)C1 [I-N-94, 2-amino-6-chloro-N-(4-(4-(3-(dimethylamino)azetidin-1-yl)piperidin-1-yl)pyridin-3-yl)pyrazolo[1,5-a]pyrimidine-3-carboxamide] | +++ (Compounds with a Cisplatin sensitization value of <0.02 μM are marked with “+++.”)
11 | COC1CCN(C2CCN(c3ccncc3NC(=O)c3c(N)nn4cc(Cl)cnc34)CC2)C1 (centres unmarked) [I-N-95, 2-amino-6-chloro-N-(4-(4-(3-methoxypyrrolidin-1-yl)piperidin-1-yl)pyridin-3-yl)pyrazolo[1,5-a]pyrimidine-3-carboxamide] | ++ (Compounds with a Cisplatin sensitization value >0.02 μM but <0.2 μM are marked with “++.”)
